Literature values as cited in patent US20210212962A1, “METHODS AND COMPOSITIONS FOR THE TREATMENT OF GRANULOMA ANNULARE OR SUBCUTANEOUS INFLAMMATION AND NON-INFECTION GRANULOMATOUS DISEASES” (Sol-Gel Technologies Ltd., priority 2020, published 2021).

Settings: known for tapinarof treatments

In the case of `CC(C)c1c(O)cc(/C=C/c2ccccc2)cc1O` [tapinarof, 3,5-dihydroxy-4-isopropyl-trans-stilbene], the “folliculitis as a side effect in tapinarof treatments” value is given as 10%.
